Columns and labels:
[1] = test system: various cancer cell lines; experiment: alamarBlue cell viability, statements across the cell line panel; details: for anticancer activity: various cancer cell lines
Description: AGS, SW48, HepG2, and MiaPaCa-2 was purchased from ATCC (American Type Culture Collection, USA), SNU cell lines from the Korean Cell Line Bank (KCLB, Korea), and 23132/87 from the Leibniz Institute DSMZ - German Collection of Microorganisms and Cell Cultures GmbH (DSMZ, Germany). All cell lines were cultured in RPMI-1640 medium (HyClone, USA) supplemented with 10% FBS (Gibco, USA) and 1% penicillin-streptomycin (HyClone, USA) under conditions of 5% CO2, 37°C.
Cells were seeded at a density of 5 × 10^3cells/well in a 96-well plate for 24 hours, then treated with the compound at an appropriate concentration (10 µM) for 48 hours. After treatment, alamarBlue reagent was added at a volume ratio of 1/10 of the treatment volume and incubated for 4 hours in a 37°C cell incubator (protected from direct light). Cell viability was then determined by measuring absorbance values at 570 nm and 600 nm using a microplate reader. The anticancer effects of candidate compounds were evaluated by assessing the cell viability (%) of cells treated at specific concentrations and the half-maximal inhibitory concentration (IC50) of each natural product. Doxorubicin and oxaliplatin were used as positive controls for gastric and colorectal cancer, respectively.
Statistical analysis was performed using R software (version 4.2.2) (R Core Team). Differences between groups were assessed using student's t-test or 1-way ANOVA followed by post-hoc Tukey HSD test. A p-value < 0.05 was considered statistically significant.
Further, to measure the IC50 values against six cancer cell lines.

MiaPaCa-2 = experiment: alamarBlue cell viability (survival rate), MiaPaCa-2; type: cell-based; details: MiaPaCa-2 (pancreatic cancer), compound 10 µM, 48 hours; for viability at 10 µM: Homo sapiens, MIA PaCa-2, read-out: Cancer cell line survival rate (%)
Description: (§1) A p-value < 0.05 was considered statistically significant.

AGS = experiment: alamarBlue cell viability (survival rate, IC50), AGS; type: cell-based; details: AGS (gastric cancer); for viability at 10 µM: read-out: Cancer cell line survival rate (%)
Description: as §1

SNU-81 = experiment: alamarBlue cell viability (survival rate, IC50), SNU-81; type: cell-based; details: for viability at 10 µM: read-out: Cancer cell line survival rate (%)
Description: as §1

SW48 = experiment: alamarBlue cell viability (survival rate, IC50), SW48; type: cell-based; details: SW48 (colorectal cancer); for viability at 10 µM: read-out: Cancer cell line survival rate (%)
Description: as §1

SNU-719 = experiment: alamarBlue cell viability (survival rate, IC50), SNU-719; type: cell-based; details: for viability at 10 µM: read-out: Cancer cell line survival rate (%)
Description: as §1

SNU466 = experiment: alamarBlue cell viability (survival rate), SNU466; type: cell-based; details: SNU466 (glioblastoma), compound 10 µM, 48 hours; for viability at 10 µM: read-out: Cancer cell line survival rate (%)
Description: as §1

23132/87 = experiment: alamarBlue cell viability (survival rate, IC50), 23132/87; type: cell-based; details: 23132/87 (gastric cancer); for viability at 10 µM: read-out: Cancer cell line survival rate (%)
Description: as §1

SNU201 = experiment: alamarBlue cell viability (survival rate), SNU201; type: cell-based; details: SNU201 (glioblastoma), compound 10 µM, 48 hours; for viability at 10 µM: read-out: Cancer cell line survival rate (%)
Description: as §1

HepG2 = experiment: alamarBlue cell viability (survival rate), HepG2; type: cell-based; details: HepG2 (liver cancer), compound 10 µM, 48 hours; for viability at 10 µM: Homo sapiens, read-out: Cancer cell line survival rate (%)
Description: as §1

SNU-C5 = experiment: alamarBlue cell viability (survival rate, IC50), SNU-C5; type: cell-based; details: for viability at 10 µM: read-out: Cancer cell line survival rate (%)
Description: as §1

[2] = SNU-81 (colorectal cancer), compound 10 µM, 48 hours
[3] = SNU-719 (gastric cancer), compound 10 µM, 48 hours
[4] = SNU-C5 (colorectal cancer), compound 10 µM, 48 hours
[5] = Homo sapiens, compound 10 µM, 48 hours

Row | Structure (SMILES) | anticancer activity [1] | viability at 10 µM (MiaPaCa-2) | viability at 10 µM (AGS; [5]) | viability at 10 µM (SNU-81; [2]) | viability at 10 µM (SW48; [5]) | viability at 10 µM (SNU-719; [3]) | viability at 10 µM (SNU466) | viability at 10 µM (23132/87; compound 10 µM, 48 hours) | viability at 10 µM (SNU201) | viability at 10 µM (HepG2) | viability at 10 µM (SNU-C5; [4]) | also measured
1 | C=CCc1cc(OC)c(O[C@H](C)[C@@H](c2ccc(O)c(OC)c2)c2ccc(O)c(C(=O)CCCCCCCCc3ccc(O)cc3)c2O)c(OC)c1 [Compound 4, Myricone D] | high anticancer activity |  |  |  |  |  |  |  |  |  |  | Cancer cell line survival rate (%) (MiaPaCa-2): 3.54%; Cancer cell line survival rate (%) (AGS; compound 10 µM, 48 hours): 10.15%; IC50 (AGS; Homo sapiens, 2.5-40 µM, positive control = doxorubicin): 7.27 µM; IC50 (SNU-81; SNU81 (colorectal cancer), 2.5-40 µM, positive control = oxaliplatin, read-out: IC50): 16.9 µM; Cancer cell line survival rate (%) (SNU-81; [2]): 115.60%; IC50 (SW48; Homo sapiens, 2.5-40 µM, positive control = oxaliplatin): 5.73 µM; Cancer cell line survival rate (%) (SW48; compound 10 µM, 48 hours): 2.61%; IC50 (SNU-719; SNU719 (gastric cancer), 2.5-40 µM, positive control = doxorubicin): 5.01 µM; Cancer cell line survival rate (%) (SNU-719; [3]): 10.19%; Cancer cell line survival rate (%) (SNU466): 1.74%; IC50 (23132/87; 2.5-40 µM, positive control = doxorubicin): 4.14 µM; Cancer cell line survival rate (%) (23132/87; compound 10 µM, 48 hours): 8.41%; Cancer cell line survival rate (%) (SNU201): 2.44%; Cancer cell line survival rate (%) (HepG2): 1.84%; Cancer cell line survival rate (%) (SNU-C5; [4]): 12.41%; IC50 (SNU-C5; SNUC5 (colorectal cancer), 2.5-40 µM, positive control = oxaliplatin, read-out: IC50): 5.57 µM
2 | C=CCc1cc(OC)c(O[C@H](C)[C@H](Oc2cc(CCCCCCCCC(=O)c3c(O)cccc3O)ccc2O)c2ccc(O)c(OC)c2)c(OC)c1 [Compound 11, Myricone L] | high anticancer activity | 22% | 20.3% | 92.5% | 5.57% | 12.5% | 0.52% | 19% | 32.8% | 25.3% | 13.4% | cytotoxic effects ([1]; gastric cancer cell lines and colorectal cancer cell lines, 10 µM, 48 hours): excellent cytotoxic effects
3 | C=CCc1cc(OC)c(O[C@@H](C)[C@H](Oc2cc(CCCCCCCCC(=O)c3c(O)cccc3O)ccc2O)c2ccc(O)c(OC)c2)c(OC)c1 [Compound 10, Myricone K] | high anticancer activity | 4.3% | 4.14% | 16.1% | 2.67% | 1.85% | 0.6% | 2.77% | 3.28% | 8.7% | 4.94% | 
